From patent US12441679B2, “Acrylamide-substituted indane compounds and therapeutic use thereof” (Sanofi, priority 2020, dated 2025)

test system: YAP1-TEAD and TAZ-TEAD activity (TEAD responsive promoter element); experiment: TEAD-Luciferase Reporter Assay (8XGTIIC-Luciferase construct stably integrated in tumor cell lines); format: cell-based, human; conditions: 8XGTIIC-Luciferase reporter in tumor cell lines, 48 hrs compound treatment, 10 doses 1-10000 nM
Excerpt: TEAD-Luciferase Reporter Assay
Luciferase-based gene reporter assays were used, employing the TEAD responsive promoter element that are stably integrated to different human tumor cell lines in order to monitor YAP1-TEAD and TAZ-TEAD activity and to study YAP1/TAZ-TEAD activity modulation by small molecule compounds. Luciferase-based gene reporter assays employing the GAPDH promoter element and stably integrated to different human tumor cell lines are used as counter screen control cell lines.
Tumor cell lines with stable integration of the 8XGTIIC-Luciferase construct (Dupont et al., Nature 2011) or the GAPDH-Luciferase control plasmid, are seeded in culture medium in 96-well plates at a density of 8000 cells/well. Following an overnight incubation in a 37° C., 5% CO2 growth chamber, cells are treated with compounds described above at 10 doses ranging between 1 and 10000 nM for 48 hrs. After compound incubation, cells are lysed with Bright-Glo Luciferase Assay System (Promega E2620) and luciferase activity is measured using a luminescent plate reader.
The inhibitory activity of the compounds with respect to luciferase activity is given by the concentration which inhibits 50% of activity of non-treated cells. IC50s are determined with a nonlinear regression model on XLfit software analysis (IDBS, UK).

`C=CC(=O)Nc1ccc2c(c1)CCC2Nc1cccc(S(F)(F)(F)(F)F)c1` (stereo not shown) [Example 54, N-(1-((3-(pentafluoro-I6-sulfanyl)phenyl)amino)-2,3-dihydro-1H-inden-5-yl)acrylamide] gave an IC50 of 388 nM.

same assay, conditions: Homo sapiens; 8XGTIIC-Luciferase reporter in tumor cell lines, 48 hrs compound treatment, 10 doses 1-10000 nM

Point of comparison: `C=CC(=O)Nc1ccc2c(c1)C(Oc1ccc(Cl)cc1)CC2` (stereo not shown) [Example 77, N-(3-(4-chlorophenoxy)-2,3-dihydro-1H-inden-5-yl)acrylamide], IC50 56 nM. Against it:
- C=CC(=O)Nc1ccc2c(c1)C(OCCCC(F)(F)F)CC2 (stereo not shown) [Example 33, N-(3-(4,4,4-trifluorobutoxy)-2,3-dihydro-1H-inden-5-yl)acrylamide] — 3-fold higher, 170 nM
- C=CC(=O)Nc1ccc2c(c1)C(OCCCCF)CC2 (stereo not shown) [Example 34, N-(3-(4-fluorobutoxy)-2,3-dihydro-1H-inden-5-yl)acrylamide] — 45-fold higher, 2530 nM
- C=CC(=O)Nc1ccc2c(c1)C(OC1CCC(F)(F)CC1)CC2 (stereo not shown) [Example 35, N-(3-((4,4-difluorocyclohexyl)oxy)-2,3-dihydro-1H-inden-5-yl)acrylamide] — 10-fold higher, 583 nM
- C=CC(=O)Nc1ccc2c(c1)C(Oc1ccc(C(F)(F)F)cc1)CC2 (stereo not shown) [Example 37, N-(3-(4-(trifluoromethyl)phenoxy)-2,3-dihydro-1H-inden-5-yl)acrylamide] — 2.3-fold lower, 24 nM
- C=CC(=O)Nc1ccc2c(c1)C(Oc1ccccc1)CC2 (stereo not shown) [Example 38, N-(3-phenoxy-2,3-dihydro-1H-inden-5-yl)acrylamide] — within 1.5-fold, 74 nM
- C=CC(=O)Nc1ccc2c(c1)C(Oc1cccc(C(F)(F)F)c1)CC2 (stereo not shown) [Example 39, N-(3-(3-(trifluoromethyl)phenoxy)-2,3-dihydro-1H-inden-5-yl)acrylamide] — within 1.5-fold, 53 nM
- C=CC(=O)Nc1ccc2c(c1)C(Oc1ccc(F)c(F)c1)CC2 (stereo not shown) [Example 40, N-(3-(3,4-difluorophenoxy)-2,3-dihydro-1H-inden-5-yl)acrylamide] — 3.7-fold lower, 15 nM
- C=CC(=O)Nc1ccc2c(c1)C(Oc1cccc(F)c1)CC2 (stereo not shown) [Example 41, N-(3-(3-fluorophenoxy)-2,3-dihydro-1H-inden-5-yl)acrylamide] — 1.6-fold higher, 87 nM
- C=CC(=O)Nc1ccc2c(c1)C(Oc1ccc(F)cc1)CC2 (stereo not shown) [Example 42, N-(3-(4-fluorophenoxy)-2,3-dihydro-1H-inden-5-yl)acrylamide] — 1.9-fold lower, 29 nM
- C=CC(=O)Nc1ccc2c(c1)C(Oc1cc(F)cc(F)c1)CC2 (stereo not shown) [Example 43, N-(3-(3,5-difluorophenoxy)-2,3-dihydro-1H-inden-5-yl)acrylamide] — 2.5-fold higher, 140 nM
- C=CC(=O)Nc1ccc2c(c1)C(Oc1ccc(F)cc1F)CC2 (stereo not shown) [Example 44, N-(3-(2,4-difluorophenoxy)-2,3-dihydro-1H-inden-5-yl)acrylamide] — within 1.5-fold, 38 nM
- C=CC(=O)Nc1ccc2c(c1)CCC2Oc1cccc(C(F)(F)F)c1 (stereo not shown) [Example 45, N-(1-(3-(trifluoromethyl)phenoxy)-2,3-dihydro-1H-inden-5-yl)acrylamide] — 4.7-fold lower, 12 nM
- C=CC(=O)Nc1ccc2c(c1)CCC2Oc1cccc(OC(F)(F)F)c1 (stereo not shown) [Example 46, N-(1-(3-(trifluoromethoxy)phenoxy)-2,3-dihydro-1H-inden-5-yl)acrylamide] — 81-fold higher, 4560 nM
- C=CC(=O)Nc1ccc2c(c1)C(Oc1cccc(C(=O)OC)c1)CC2 (stereo not shown) [Example 47, methyl 3-[6-(prop-2-enoylamino)-2,3-dihydro-1H-inden-1-yl]oxybenzoate] — 78-fold higher, 4350 nM
- C=CC(=O)Nc1ccc2c(c1)CC(Nc1ccc(C(F)(F)F)cc1)C2 (stereo not shown) [Example 52, N-[2-[4-(trifluoromethyl)anilino]-2,3-dihydro-1H-inden-5-yl]acrylamide] — 50-fold higher, 2820 nM
- C=CC(=O)Nc1ccc2c(c1)C(Nc1cc(F)cc(F)c1)CC2 (stereo not shown) [Example 53, N-(3-((3,5-difluorophenyl)amino)-2,3-dihydro-1H-inden-5-yl)acrylamide] — within 1.5-fold, 57 nM
- C=CC(=O)Nc1ccc2c(c1)CCC2Nc1cc(C(F)(F)F)ccn1 (stereo not shown) [Example 59, N-(1-((4-(trifluoromethyl)pyridin-2-yl)amino)-2,3-dihydro-1H-inden-5-yl)acrylamide 2,2,2-trifluoroacetate] — within 1.5-fold, 60 nM
- C=CC(=O)Nc1ccc2c(c1)CCC2Nc1cccc(C(F)(F)F)n1 (stereo not shown) [Example 60, N-(1-((6-(trifluoromethyl)pyridin-2-yl)amino)-2,3-dihydro-1H-inden-5-yl)acrylamide] — 6.2-fold higher, 346 nM
- C=CC(=O)Nc1ccc2c(c1)CCC2Nc1cncc(C(F)(F)F)c1 (stereo not shown) [Example 61, N-(1-((5-(trifluoromethyl)pyridin-3-yl)amino)-2,3-dihydro-1H-inden-5-yl)acrylamide] — 3.2-fold higher, 178 nM
- C=CC(=O)Nc1ccc2c(c1)CCC2N(C)c1cccc(C(F)(F)F)c1 (stereo not shown) [Example 62, N-(1-(methyl(3-(trifluoromethyl)phenyl)amino)-2,3-dihydro-1H-inden-5-yl)acrylamide] — within 1.5-fold, 70 nM
- C=CC(=O)Nc1ccc2c(c1)CCC2N(C)c1ccccc1 (stereo not shown) [Example 63, N-(1-(methyl(phenyl)amino)-2,3-dihydro-1H-inden-5-yl)acrylamide] — 2.6-fold higher, 144 nM
- C=CC(=O)Nc1ccc2c(c1)CCC2N(C)c1ccc(C(F)(F)F)cc1 (stereo not shown) [Example 64, N-(1-(methyl(4-(trifluoromethyl)phenyl)amino)-2,3-dihydro-1H-inden-5-yl)acrylamide] — 14-fold higher, 806 nM
- C=CC(=O)Nc1ccc2c(c1)C(C)(C)CC2Nc1cccc(C(F)(F)F)c1 (stereo not shown) [Example 65, N-(3,3-dimethyl-1-((3-(trifluoromethyl)phenyl)amino)-2,3-dihydro-1H-inden-5-yl)acrylamide] — 33-fold higher, 1850 nM
- C=CC(=O)Nc1ccc2c(c1)C(C)(C)CC2Nc1ccc(C(F)(F)F)cc1 (stereo not shown) [Example 66, N-(3,3-dimethyl-1-((4-(trifluoromethyl)phenyl)amino)-2,3-dihydro-1H-inden-5-yl)acrylamide] — 15-fold higher, 863 nM
- C=CC(=O)Nc1cc(F)c2c(c1)CCC2Nc1cccc(C(F)(F)F)c1 (stereo not shown) [Example 67, N-[7-fluoro-1-[3-(trifluoromethyl)anilino]-2,3-dihydro-1H-inden-5-yl]acrylamide] — within 1.5-fold, 53 nM
- C=CC(=O)Nc1ccc2c(c1F)CCC2Nc1ccc(C(F)(F)F)cc1 (stereo not shown) [Example 68, N-[4-fluoro-1-[4-(trifluoromethyl)anilino]-2,3-dihydro-1H-inden-5-yl]acrylamide] — 5.2-fold higher, 290 nM
- C=CC(=O)N(C)c1ccc2c(c1)CCC2Nc1ccc(C(F)(F)F)cc1 (stereo not shown) [Example 69, N-methyl-N-(1-((4-(trifluoromethyl)phenyl)amino)-2,3-dihydro-1H-inden-5-yl)acrylamide] — 6.2-fold higher, 349 nM
- C=CC(=O)Nc1ccc2c(c1)C(NC1CCC(F)(F)CC1)CC2 (stereo not shown) [Example 70, N-(3-((4,4-difluorocyclohexyl)amino)-2,3-dihydro-1H-inden-5-yl)acrylamide] — 94-fold higher, 5260 nM
- C=CC(=O)Nc1ccc2c(c1)C(OC1CCC(C(F)(F)F)C1)CC2 (stereo not shown) [Example 71, N-(3-((3-(trifluoromethyl)cyclopentyl)oxy)-2,3-dihydro-1H-inden-5-yl)acrylamide] — 15-fold higher, 820 nM
- C=CC(=O)Nc1ccc2c(c1)C(OCCCCC(F)(F)F)CC2 (stereo not shown) [Example 72, N-(3-((5,5,5-trifluoropentyl)oxy)-2,3-dihydro-1H-inden-5-yl)acrylamide] — 15-fold higher, 861 nM
- C=CC(=O)Nc1ccc2c(c1)C(OCCCC(F)F)CC2 (stereo not shown) [Example 73, N-(3-(4,4-difluorobutoxy)-2,3-dihydro-1H-inden-5-yl)acrylamide] — 23-fold higher, 1310 nM
- C=CC(=O)Nc1ccc2c(c1)C(OCC(F)(F)F)CC2 (stereo not shown) [Example 74, N-(3-(2,2,2-trifluoroethoxy)-2,3-dihydro-1H-inden-5-yl)acrylamide] — 66-fold higher, 3690 nM
- C=CC(=O)Nc1ccc2c(c1)C(OCCC(F)(F)F)CC2 (stereo not shown) [Example 75, N-(3-(3,3,3-trifluoropropoxy)-2,3-dihydro-1H-inden-5-yl)acrylamide] — 84-fold higher, 4720 nM
- C=CC(=O)N(C)c1ccc2c(c1)CCC2OC1CCC(C(F)(F)F)CC1 (stereo not shown) [Example 76, N-methyl-N-(1-((4-(trifluoromethyl)cyclohexyl)oxy)-2,3-dihydro-1H-inden-5-yl)acrylamide] — 14-fold higher, 777 nM
- C=CC(=O)Nc1ccc2c(c1)C(Oc1cccc(Cl)c1)CC2 (stereo not shown) [Example 78, N-(3-(3-chlorophenoxy)-2,3-dihydro-1H-inden-5-yl)acrylamide] — within 1.5-fold, 52 nM
- C=CC(=O)Nc1ccc2c(c1)C(Oc1cccc(C)c1)CC2 (stereo not shown) [Example 79, N-(3-(m-tolyloxy)-2,3-dihydro-1H-inden-5-yl)acrylamide] — 150-fold higher, 8670 nM
- C=CC(=O)Nc1ccc2c(c1)C(Oc1cccc(SC)c1)CC2 (stereo not shown) [Example 80, N-(3-(3-(methylthio)phenoxy)-2,3-dihydro-1H-inden-5-yl)acrylamide] — 5.4-fold higher, 300 nM
- C=CC(=O)Nc1ccc2c(c1)C(Oc1cccc(C3CC3)c1)CC2 (stereo not shown) [Example 81, N-(3-(3-cyclopropylphenoxy)-2,3-dihydro-1H-inden-5-yl)acrylamide] — 2.1-fold higher, 117 nM
- C=CC(=O)Nc1ccc2c(c1)CCC2Oc1ccc(C(F)(F)F)cc1 (stereo not shown) [Example 82, N-(1-(4-(trifluoromethyl)phenoxy)-2,3-dihydro-1H-inden-5-yl)acrylamide] — 1.8-fold lower, 31 nM
- C=CC(=O)N(C)c1ccc2c(c1)CCC2Oc1ccc(C(F)(F)F)cc1 (stereo not shown) [Example 83, N-methyl-N-(1-(4-(trifluoromethyl)phenoxy)-2,3-dihydro-1H-inden-5-yl)acrylamide] — 1.9-fold higher, 109 nM
- C=CC(=O)Nc1ccc2c(c1)C(Oc1ccc(C(F)(F)F)cn1)CC2 (stereo not shown) [Example 88, N-[3-[[5-(trifluoromethyl)pyridin-2-yl]oxy]-2,3-dihydro-1H-inden-5-yl]acrylamide] — within 1.5-fold, 51 nM
